Measured values as given in patent US20160303095A1, “METHODS OF TREATING HEPATITIS B VIRUS” (Gilead Sciences, Inc., priority 2015, published 2016).
Where two headings read alike, the source gives them in different places.

Test system: HBV
Assay: PHH screening protocol: HBsAg and HBeAg levels by MSD ELISA
Type: cell-based, Hepatitis B Virus
Conditions: Hepatitis B virus, 336 h, compound removed after 14 days of treatment
Experimental: HBV antiviral activity was assessed in primary human hepatocytes (PHH) in a 96-well format. PHH were (Life Technologies, Chicago, 11) plated on collagen coated tissue culture plates using Plating Media containing William's Medium E supplemented with 1% Penicillin/Streptomycin, 4 μg/mL human recombinant insulin, 2 mM glutamax, 15 mM Hepes, 1 μM dexamethasone and 5% fetal bovine serum (Life Technologies, Cat#A12176-01 Life Technologies, Chicago, Ill.). After a 4-hour incubation at 37° C., cells were switched to Maintenance Media (Cat#CM4000-A15564 Life Technologies, Chicago, Ill.) containing William's Medium E supplemented with 0.5% Penicillin/Streptomycin, 6.25 μg/mL human recombinant insulin, 6.25 μg/mL human transferrin, 6.25 ng/mL selenous acid, 1.25 mg/mL bovine serum albumin, 5.35 μg/mL linoleic acid, 2 mM glutamax, 15 mM Hepes, 0.1 μM dexamethasone, 2% fetal bovine serum, and 2% DMSO (Cat#D2650 Sigma, St. Louis, Mo.). On the next day, cells were infected with approximately 500 genome equivalent of selected HBV clinical isolates (21P (GTA), 32P (GTA), 91P (GTA), AD38 (GTD), 65P (GTD) or 30P (GTE); ProteoGenex, Culver City, Calif.) per cell in Maintenance Media supplemented with 4% PEG 8000 (Cat#V3011 Promega, Madison, Wis.). After 24 hour incubation cells were washed three times with William's Medium E and fed with fresh Maintenance Media. Small molecule inhibitors targeting KDMs were serially diluted in Maintenance Media and added to cells at 3 days post infection (p.i.). Media with compounds was replenished every 2-3 days. Media collected on various days was used for determination of HBsAg and HBeAg levels by MSD ELISA, and HBV RNA by qPCR. All data were converted into percentages of the untreated control and non-linear regression was performed to calculate EC50 or CC50 values.

**Q.** With `CCOC(=O)c1ccnc(CNCC(=O)N(CC)CCN(C)C)c1` [Example 8] as the compound, how does the EC50 (read-out: HBeAg EC50, virus 30P, PHH donor 4239, d 14) read?
**A.** The EC50 was 4310 nM.

**Q.** What about the EC50 (read-out: HBeAg EC50, virus 30P, PHH donor 4239, d 17) of the same compound?
**A.** Its EC50 is 141 nM.

**Q.** What about the EC50 (read-out: HBeAg EC50, virus 30P, PHH donor 4239, d 20) of the same compound?
**A.** The EC50 was 111 nM.

**Q.** What about the EC50 (read-out: HBeAg EC50, virus 30P, PHH donor 4239, d 25) of the same compound?
**A.** The EC50 was 15 nM.

**Q.** What about the EC50 (read-out: HBeAg EC50, virus 30P, PHH donor 4239, d 31) of the same compound?
**A.** The EC50 was 36 nM.

**Q.** What about the EC50 (read-out: HBeAg EC50, virus 30P, PHH donor 8130, d 14) of the same compound?
**A.** The EC50 was 318 nM.

**Q.** What about the EC50 (read-out: HBeAg EC50, virus 30P, PHH donor 8130, d 17) of the same compound?
**A.** Its EC50 is 24 nM.

**Q.** And the EC50 (read-out: HBeAg EC50, virus 30P, PHH donor 8130, d 20)?
**A.** The EC50 was 20 nM.

**Q.** What about the EC50 (read-out: HBeAg EC50, virus 30P, PHH donor 8130, d 25) of the same compound?
**A.** Its EC50 is 2 nM.

**Q.** And the EC50 (read-out: HBeAg EC50, virus 30P, PHH donor 8130, d 31)?
**A.** Its EC50 is 2 nM.

**Q.** And the EC50 (read-out: HBeAg EC50, virus AD38, PHH donor 4239, d 14)?
**A.** The EC50 was greater than 15000 nM.

**Q.** And the EC50 (read-out: HBeAg EC50, virus AD38, PHH donor 4239, d 17)?
**A.** Its EC50 is 1660 nM.

**Q.** What about the EC50 (read-out: HBeAg EC50, virus AD38, PHH donor 4239, d 20) of the same compound?
**A.** Its EC50 is 670 nM.

**Q.** And the EC50 (read-out: HBeAg EC50, virus AD38, PHH donor 4239, d 25)?
**A.** Its EC50 is 110 nM.

**Q.** And the EC50 (read-out: HBeAg EC50, virus AD38, PHH donor 4239, d 31)?
**A.** The EC50 was 200 nM.

**Q.** What about the EC50 (read-out: HBeAg EC50, virus AD38, PHH donor 8130, d 14) of the same compound?
**A.** Its EC50 is 2420 nM.

**Q.** What about the EC50 (read-out: HBeAg EC50, virus AD38, PHH donor 8130, d 17) of the same compound?
**A.** Its EC50 is 840 nM.

**Q.** What about the EC50 (read-out: HBeAg EC50, virus AD38, PHH donor 8130, d 20) of the same compound?
**A.** The EC50 was 190 nM.

**Q.** And the EC50 (read-out: HBeAg EC50, virus AD38, PHH donor 8130, d 25)?
**A.** Its EC50 is 30 nM.

**Q.** And the EC50 (read-out: HBeAg EC50, virus AD38, PHH donor 8130, d 31)?
**A.** The EC50 was 10 nM.

**Q.** What about the EC50 (read-out: HBsAg EC50, virus 30P, PHH donor 4239, d 14) of the same compound?
**A.** Its EC50 is greater than 15000 nM.

**Q.** And the EC50 (read-out: HBsAg EC50, virus 30P, PHH donor 4239, d 17)?
**A.** Its EC50 is 207 nM.

**Q.** What about the EC50 (read-out: HBsAg EC50, virus 30P, PHH donor 4239, d 20) of the same compound?
**A.** The EC50 was 26 nM.

**Q.** And the EC50 (read-out: HBsAg EC50, virus 30P, PHH donor 4239, d 25)?
**A.** Its EC50 is 28 nM.

**Q.** What about the EC50 (read-out: HBsAg EC50, virus 30P, PHH donor 4239, d 31) of the same compound?
**A.** Its EC50 is 32 nM.

**Q.** What about the EC50 (read-out: HBsAg EC50, virus 30P, PHH donor 8130, d 14) of the same compound?
**A.** Its EC50 is 1 nM.

**Q.** And the EC50 (read-out: HBsAg EC50, virus 30P, PHH donor 8130, d 17)?
**A.** Its EC50 is 19 nM.

**Q.** What about the EC50 (read-out: HBsAg EC50, virus 30P, PHH donor 8130, d 20) of the same compound?
**A.** The EC50 was 3 nM.

**Q.** And the EC50 (read-out: HBsAg EC50, virus 30P, PHH donor 8130, d 25)?
**A.** The EC50 was 2 nM.

**Q.** And the EC50 (read-out: HBsAg EC50, virus 30P, PHH donor 8130, d 31)?
**A.** The EC50 was 2 nM.

**Q.** What about the EC50 (read-out: HBsAg EC50, virus AD38, PHH donor 4239, d 14) of the same compound?
**A.** Its EC50 is 6300 nM.

**Q.** What about the EC50 (read-out: HBsAg EC50, virus AD38, PHH donor 4239, d 17) of the same compound?
**A.** The EC50 was 842 nM.

**Q.** What about the EC50 (read-out: HBsAg EC50, virus AD38, PHH donor 4239, d 20) of the same compound?
**A.** The EC50 was 300 nM.

**Q.** What about the EC50 (read-out: HBsAg EC50, virus AD38, PHH donor 4239, d 25) of the same compound?
**A.** The EC50 was 372 nM.

**Q.** And the EC50 (read-out: HBsAg EC50, virus AD38, PHH donor 4239, d 31)?
**A.** The EC50 was 152 nM.

**Q.** What about the EC50 (read-out: HBsAg EC50, virus AD38, PHH donor 8130, d 14) of the same compound?
**A.** Its EC50 is 2010 nM.

**Q.** What about the EC50 (read-out: HBsAg EC50, virus AD38, PHH donor 8130, d 17) of the same compound?
**A.** The EC50 was 920 nM.

**Q.** And the EC50 (read-out: HBsAg EC50, virus AD38, PHH donor 8130, d 20)?
**A.** Its EC50 is 81 nM.
